Experiment [1] can be described thus: Total Radical-trapping Anti-oxidant Parameter assay (TRAP assay). Conditions: for activity in the TRAP assay: compared with curcumin; for TRAP: antioxidant activity. The arrangement: key to TRAP: active as an antioxidant (+). As to the method: This assay is also known as the Total radical-trapping anti-oxidant parameter assay (TRAP assay). For the TRAP assay (Re et al., Free Rad. Biol. […] The turquoise colored reaction was allowed to stabilize for 5 min and the absorbance monitored on a Perkin Elmer UV/Vis Lambda 2S. […] The following FIGS. 2A-2C) show the analogs active in the TRAP assay.

The test system of the next experiment is NF-κB. Nature of the experiment: NF-κB luciferase reporter cellular assay (293T/NF-κB-luc, TNFα-stimulated). Conditions: for inhibition of the activation of NF-κB by TNFα (screen): 10 μM, compared with curcumin; for IC50: Homo sapiens, HEK-293T. Type of experiment: cell-based, human. The method, then: The cell line is derived from human 293T embryonic kidney cells expressing the large T antigen containing a chromosomal integration of a luciferase reporter construct regulated by 6 copies of the NF-κB response element (Panomics, Inc.). This stable clonal cell line is obtained by co-transfection of pNF-κB-luc and pTK-hyg containing plasmids followed by the addition of hygromycin (200 μg/ml) to maintain cell selection.
The cell line was grown in a humidified atmosphere at 37° C. in 5% CO2/95% air and maintained in Dulbecco's Modified Eagle's Medium (DMEM-high glucose containing 4 mM glutamine) containing fetal bovine serum (FBS, 10%), sodium pyruvate (1 mM), penicillin (100 units/ml), streptomycin (100 μg/ml) and hygromycin (100 μg/m) to maintain cell selection (Gibco/Invitrogen).
The 293T/NF-κB-luc cells were re-plated 24 hr prior to treatment, into 24-well cell culture plates in media without hygromycin, to prevent it from interfering with the assay. The cells were then allowed to grow and attach, to the wells, for 24 hr in a humidified atmosphere at 37° C. in 5% CO2/95% air. […] The cells then were placed again in a humidified atmosphere at 37° C. in 5% CO2/95% air for 7 hr. Plate wells were gently washed with PBS, pH 7.4, and lysed with passive lysis buffer (1×, 100 μl, Promega). The subsequent chemiluminescent lysates were analyzed with the Luciferase Assay System (Promega) utilizing a TD-20/20 luminometer. The relative light units (photons) were determined by the addition of firefly luciferase substrate (75 μl) to cell lysate (10 μl). The light units were then normalized to the amount of protein in the well (mg/ml) with BCA™ Protein Assay Kit (Pierce) and standardized to percent of control (TNFα).
This assay utilized a commercially available cell line (Panomics 293T-luc cellular assay) developed for screening inhibitors of NF-κB. This cell line is stably transfected with a luciferase reporter controlled by an NF-κB dependent promoter. The cell is stimulated with tumor necrosis factor alpha (TNFα) which activates NF-κB. NF-κB then binds to one of six promoter regions on the cell's DNA leading to the production of a luciferase enzyme. Luciferin is added to the cell lysates and the luciferase enzyme catalyzes a cleavage of luciferin leading to the emission of light.
This cell line was developed by Panomics for screening potential inhibitors of NF-κB. Cells are stimulated with TNF-α to express luciferase, whose activity is monitored in a chemiluminometer.
An NF-κB reporter stable cell line from human 293T embryonic kidney cells (293T/NFκB-luc) (Panomics) was grown in a humidified atmosphere at 37° C. in 5% CO2/95% air. The cells were maintained in Dulbecco's Modified Eagle's Medium (DMEM—high glucose containing 4 mM glutamine) supplemented with 10% fetal bovine serum (FBS), 1 mM sodium pyruvate, 100 units/ml penicillin, 100 μg/m streptomycin and 100 μg/ml hygromycin (Gibco/Invitrogen, Carlsbad, Calif.)) to maintain cell selection. One day prior to treatment, the 293T/NFκB-luc cells were plated into 24-well cell culture plates (Costar) at approximately 70% confluency in the above media without hygromycin. The following day cells were fed fresh media 1 hour prior to treatment. […] The cells were placed again in a humidified atmosphere at 37° C. in 5% CO2/95% air for 7 hours. Plate wells were gently washed with phosphate buffered saline, pH 7.4, and lysed with 1× passive lysis buffer (Promega). The subsequent lysates were analyzed with the Luciferase Assay System (Promega) utilizing a TD-20/20 luminometer (Turner Designs). The firefly luciferase relative light units were normalized to protein (mg/ml) with BCATM Protein Assay Kit (Pierce) and standardized to TNF-α control.

A further experiment concerns AP-1. Briefly: AP-1 luciferase reporter cellular assay (293/AP1-luc, PMA-stimulated). In kind it is cell-based, human. Conditions: for activity in the AP-1 cellular assay (screen): 15 μM, compared with curcumin; for IC50: Homo sapiens, inhibition of PMA-induced AP-1 activation, 293/AP1-luc cells, Table 10, read-out: AP-1 IC50. The method, then:
This cell line is obtained by co-transfection of pAP1-luc and pTK-hyg containing plasmids followed by the addition of hygromycin (200 μg/ml) to maintain cell selection.
After 24 hr, the cells had reached approximately 60% confluency. […] Plate wells were gently washed with PBS, pH 7.4, and lysed with passive lysis buffer (1×, 100 μl, Promega). The subsequent chemiluminescent lysates were analyzed with the Luciferase Assay System (Promega) utilizing a TD-20/20 luminometer. The relative light units (photons) were determined by the addition of firefly luciferase substrate (75 μl) to cell lysate (10 μl). The light units were then normalized to the amount of protein in the well (mg/ml) with BCA™ Protein Assay Kit (Pierce) and standardized to percent of control (PMA).
This cell line is stably transfected with a luciferase reporter controlled by an AP-1 dependent promoter. The cell is stimulated with phorbol ester which activates AP-1. AP-1 then binds to one of three promoter regions on the cells DNA leading to the production of a luciferase enzyme. Luciferin is added to the cell lysates and the luciferase enzyme catalyzes a cleavage of luciferin leading to the emission of light.
On the technique in general: In a reporter assay the amount or activity of a reporter protein is the signal.

The mark [2] stands for this setting: inhibition of TNF-α-induced NF-κB activation, Panomics 293T/NFκB-luc, second Table 12, read-out: IC50.

Entries after “also recorded” stand apart in the source; their conditions may differ. Where two headings read alike, the source gives them in different places.

One may read the IC50 as the midpoint of a concentration-inhibition curve.

With `COc1ccc(/C=C/C(=O)/C=C(O)/C=C/c2ccc(OC)c(O)c2)cc1O` [3h], the “activity in the TRAP assay” value in experiment [1] (10 μM in ethanol) is “more active than curcumin”. Turning to `COc1cc(CCC(=O)C(C)=C(O)CCc2ccc(O)c(OC)c2)ccc1O` [14a], in experiment [1] (10 μM in ethanol), the “activity in the TRAP assay” value is recorded as “more active than curcumin”. Further, in the experiment on NF-κB, the “inhibition of the activation of NF-κB by TNFα (screen)” value (from here on “inhibition of the activation of NF-κB”) is “more active than curcumin”. For `COc1cc(CCC(=O)C(Cc2ccccc2)=C(O)CCc2ccc(O)c(OC)c2)ccc1O` [15a], in experiment [1] (10 μM in ethanol), the “activity in the TRAP assay” value was “more active than curcumin”.

With `COc1cc(/C=C/C(=O)/C=C/c2ccc(O)c(OC)c2)ccc1O` [20a], the “inhibition of the activation of NF-κB” value in the experiment with NF-κB was “more active than curcumin”. In the case of `COc1ccccc1/C=C/C(=O)/C=C/c1ccccc1OC` [20c], the “activity in the AP-1 cellular assay (screen)” value (“activity … (screen)” below) in the experiment on AP-1 is listed as “more active than curcumin”.

For `COc1cccc(/C=C/C(=O)/C=C/c2cccc(OC)c2OC)c1OC` [20d], the “activity … (screen)” value in the experiment on AP-1 is “more active than curcumin”. The same measure, in the same setting: as for `COc1cccc(OC)c1/C=C/C(=O)/C=C/c1c(OC)cccc1OC` [20l], the entry is “more active than curcumin”.

With `COc1ccc(OC)c(/C=C/C(=O)/C=C/c2cc(OC)ccc2OC)c1` [20m], the “activity … (screen)” value in the experiment with AP-1 is given as “more active than curcumin”. In addition, the IC50 with AP-1 stood at 1.4 µM; with NF-κB (inhibition of TNFα-induced NF-κB activation, 293T/NF-κB-luc cells, Table 5, read-out: IC50), 6.4 µM; with NF-κB (inhibition of TNFα-induced NF-κB activation, Table 10, read-out: NF-κB IC50), 6.4 µM. The “inhibition of the activation of NF-κB” value with NF-κB is on record as “more active than curcumin”. Take `COc1cc(/C=C/C(=O)/C=C/c2cc(OC)cc(OC)c2)cc(OC)c1` [20o]: the “activity … (screen)” value in the experiment on AP-1 was “more active than curcumin”. Further, the “inhibition of the activation of NF-κB” value in the experiment with NF-κB is on record as “more active than curcumin”. For `O=C(/C=C/c1ccccc1O)/C=C/c1ccccc1O` [20q], the “activity in the TRAP assay” value in experiment [1] (10 μM in ethanol) is recorded as “more active than curcumin”. The TRAP result in experiment [1] (10 μM in ethanol, Table 5) is “+”; in experiment [1] (Table 10), “+”. For the same molecule, the “activity … (screen)” value in the experiment with AP-1 is reported as “more active than curcumin”. In the experiment with AP-1, the IC50 is 11.7 µM. The “inhibition of the activation of NF-κB” value with NF-κB is reported as “more active than curcumin”. As for `O=C(/C=C/c1cccc(C(F)(F)F)c1)/C=C/c1cccc(C(F)(F)F)c1` [20v], in the experiment with NF-κB, the “inhibition of the activation of NF-κB” value is “more active than curcumin”. `O=C(/C=C/c1ccccc1C(F)(F)F)/C=C/c1ccccc1C(F)(F)F` [20w]: the “activity … (screen)” value with AP-1 is on record as “more active than curcumin”. In the experiment with NF-κB, the “inhibition of the activation of NF-κB” value was “more active than curcumin”. As for `CC(=O)C=Cc1ccccc1O` [35q], the “activity … (screen)” value in the experiment on AP-1 is reported as “Active”.

Turning to `O=C(C1OC1c1ccccc1)C1OC1c1ccccc1` (stereo not shown) [42b], the “inhibition of the activation of NF-κB” value in the experiment on NF-κB is listed as “activity comparable to curcumin”. On to `N#Cc1ccc(C(=O)/C=C/c2ccccc2)cc1` [46al], for which the “activity … (screen)” value in the experiment on AP-1 is listed as “Active”. Regarding `CN1C(c2ccccc2)CC(=O)CC1c1ccccc1` (stereo not shown) [52b], the “inhibition of the activation of NF-κB” value in the experiment on NF-κB is “more active than curcumin; also recorded: activity comparable to curcumin”. As for `COc1cc(/C=C/C(=O)/C(C)=C(O)/C=C/c2ccc(O)c(OC)c2)ccc1O` [Compound 2], the IC50 with NF-κB (setting [2]) was 6.7 ± 1.2 µM. Still for that read-out and setting: the value for `O=C(/C=C/c1cccnc1)/C=C/c1cccnc1` [Compound 3] was 3.4 ± 0.2 µM; that for `O=C(/C=C/c1ccccc1C(F)(F)F)/C=C/c1ccccc1C(F)(F)F` [Compound 5] was 5 ± 0.3 µM.
